{
  "source": "paper PMC12881674",
  "about": "“Activation of TRPV3 channels in bladder cancer cells stimulates ATP release” (Molecular Pharmacology, 2025)",
  "molecular_target": "T1, TRPV3 in CAL-29 cells (Homo sapiens, UniProt Q8NET8)",
  "T1 construct": "host or cells: CAL-29",
  "T1 sequence (Q8NET8 1-790)": "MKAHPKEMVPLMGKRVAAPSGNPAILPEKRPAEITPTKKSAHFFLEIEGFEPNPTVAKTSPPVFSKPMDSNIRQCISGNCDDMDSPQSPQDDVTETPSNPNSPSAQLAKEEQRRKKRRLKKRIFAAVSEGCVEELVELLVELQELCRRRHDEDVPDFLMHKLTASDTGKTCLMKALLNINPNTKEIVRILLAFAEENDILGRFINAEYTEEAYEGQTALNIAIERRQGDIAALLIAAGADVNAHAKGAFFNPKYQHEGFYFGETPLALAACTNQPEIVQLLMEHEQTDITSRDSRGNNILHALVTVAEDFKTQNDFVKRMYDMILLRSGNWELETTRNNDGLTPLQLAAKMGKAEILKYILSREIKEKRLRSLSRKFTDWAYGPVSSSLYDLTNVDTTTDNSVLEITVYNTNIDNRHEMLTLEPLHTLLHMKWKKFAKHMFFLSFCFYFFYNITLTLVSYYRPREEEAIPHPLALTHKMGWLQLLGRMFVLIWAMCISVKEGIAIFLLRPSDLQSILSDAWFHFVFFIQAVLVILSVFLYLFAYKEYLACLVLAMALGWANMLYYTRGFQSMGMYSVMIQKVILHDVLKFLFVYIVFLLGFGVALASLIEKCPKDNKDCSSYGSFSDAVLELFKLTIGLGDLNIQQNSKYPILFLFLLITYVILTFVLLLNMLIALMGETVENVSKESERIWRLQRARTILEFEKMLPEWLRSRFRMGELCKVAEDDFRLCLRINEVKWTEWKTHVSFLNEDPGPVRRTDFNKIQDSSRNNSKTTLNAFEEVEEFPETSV",
  "experiment": "fura-2 Ca2+ assay in CAL-29 bladder cancer cells",
  "type": "cell-based",
  "conditions": "50 μM AV3-1",
  "description": "All fluorometric Ca^2+ assays were performed in HBS buffer at room temperature. The compounds of the Enamine Diversity Set were diluted in a buffer composed of 150 mM NaCl and 20 mM HEPES and added to the cells at a final concentration of 25 μM (0.5% DMSO). For the primary compound screening and the generation of concentration-response analyses, a robotic liquid handling station (Freedom Evo 150; Tecan) with a built-in custom-made fluorescence plate imager was used. HEKTRPV3 and bladder cancer cell lines were harvested and loaded with 4 μM fluo-4/AM (Invitrogen; Fisher Scientific) in cell culture medium for 30 minutes at 37 °C. […] Fluorescence was excited using a 470-nm light-emitting diode, and emitted light was imaged through a 515-nm–long pass filter with a cooled Zyla 5.5 camera (Andor). Fluorescence was recorded and processed under the control of the μ-Manager 2.0 gamma software (https://micro-manager.org.[28]). After recording baseline fluorescence, compounds were dispensed into the wells via the liquid handling device. […] For further analysis, fluorescence signals were calculated for each well, corrected for background intensities and normalized to the initial signals. […] Fluorescence signals were excited with a fiber-coupled monochromator device (Polychrome V; Till Photonics) at 340, 358, and 380 nm and calibrated as described before.[29] […]",
  "data": [
    {"compound": "COC(=O)C12CN(Cc3ccccc3)CC1(C(=O)OC)CN(Cc1ccccc1)C2", "note": "(stereo not shown) [AV3-1]", "values": [
      {"measurement": "[Ca2+]i response in CAL-29 cells", "result": "robust increases in [Ca^2+]i"}
    ]}
  ]
}
